Tested on: blood platelets
Assay: Inhibition of platelet aggregation
Assay type: cell-based

Row | Compound | IC50 [µM]
1 | O=C(O)C[C@@H](CCc1ccccc1)NC(=O)CN(Cc1ccccc1)C(=O)CCCC1CCNCC1 [(1), Pib-N-(benzyl)Gly-3(R)-(2-phenethyl)-β-alanine] | 0.25
2 | CCCCN(CC(=O)N[C@H](CCc1ccccc1)CC(=O)O)C(=O)CCCC1CCNCC1 [(2), Pib-N-(n-butyl)Gly-3(R)-(2-phenethyl)-β-alanine] | 0.077
3 | CC(C)N(C(=O)CCCC1CCNCC1)[C@H](CCc1ccccc1)CC(=O)O [(3), Pib-N-(i-Propyl)-3(R)-(2-phenethyl)-β-alanine] | 0.099
4 | O=C(O)C[C@@H](CCc1ccccc1)NC(=O)CN(CCc1ccccc1)C(=O)CCCC1CCNCC1 [(4), Pib-N-(2-phenethyl)Gly-3(R)-(2-phenethyl)-β-alanine] | 0.087
5 | CCOC(=O)C[C@H](CCc1c[nH]c2ccccc12)NC(=O)CNC(=O)CCCC1CCNCC1 [(5), Pib-Gly-3(S)-[2-(indol-3-yl)ethyl]-β-alanine ethyl ester] | > 1
6 | O=C(O)C[C@H](CCc1c[nH]c2ccccc12)NC(=O)CNC(=O)CCCC1CCNCC1 [(6), Pib-Gly-3(S)-[2-(indol-3-yl)ethyl]β-alanine] | 31
7 | CC(CCc1ccccc1)(CC(=O)O)NC(=O)CNC(=O)CCCC1CCNCC1 (centres unmarked) [(7)] | > 300
8 | O=C(O)CC(CCO)NC(=O)CNC(=O)CCCC1CCNCC1 (stereo not drawn) [(8), Pib-Gly-3-[2-(hydroxy)ethyl]β-alanine] | > 1
9 | O=C(O)CC(CCCCO)NC(=O)CNC(=O)CCCC1CCNCC1 (stereo not drawn) [(9), Pib-Gly-3-[4-(hydroxy)butyl],β-alanine] | 3.7
10 | O=C(O)CC(COc1ccccc1)NC(=O)CNC(=O)CCCC1CCNCC1 (stereo not drawn) [(10), Pib-Gly-3-(phenoxymethyl)β-alanine] | 2.1
11 | O=C(O)CC(CCc1c[nH]cn1)NC(=O)CNC(=O)CCCC1CCNCC1 (stereo not drawn) [(11), Pib-Gly-3-[2-(imidazol-4-yl)ethyl]β-alanine] | 2.7
12 | O=C(O)CC(CCc1cncn1Cc1ccccc1)NC(=O)CNC(=O)CCCC1CCNCC1 (stereo not drawn) [(12), Pib-Gly-3-[2-(3-benzylimidazol-4-yl)ethyl]β-alanine] | 1.5
13 | Cc1[nH]c2ccccc2c1CCC(CC(=O)O)NC(=O)CNC(=O)CCCC1CCNCC1 (stereo not drawn) [(14), Pib-Gly-3-[2-(2-methylindol-3-yl)ethyl]β-alanine] | 1.1
14 | Pib-Gly-3-(3-carboxypropyl)β-alanine [(13)] | 4

From patent US5264420A, “Fibrinogen receptor antagonists” (Merck & Co., Inc., priority 1992, dated 1993)
